Data taken from PubChem BioAssay (NCI).
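Step 1: Grow cells in 96-well plates. Step 2: Expose to compound for 48 hours at 5 concentrations. Step 3: Interpolate endpoints linearly; if unreached, use highest concentration. GI50 is the concentration that inhibits growth by half. TGI denotes the concentration required for complete inhibition of growth.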

Key:
Assay in all cases: DTP human tumour cell line panel, 48 h
OVCAR-5 ovarian = test system: OVCAR-5 ovarian
MOLT-4 leukemia = test system: MOLT-4 leukemia
UACC-62 melanoma = test system: UACC-62 melanoma
SK-MEL-2 melanoma = test system: SK-MEL-2 melanoma
MDA-MB-231 breast = test system: MDA-MB-231 breast
NCI/ADR-RES ovarian = test system: NCI/ADR-RES ovarian
SF-295 CNS = test system: SF-295 CNS
UACC-257 melanoma = test system: UACC-257 melanoma
COLO 205 colon = test system: COLO 205 colon
OVCAR-4 ovarian = test system: OVCAR-4 ovarian
BT-549 breast = test system: BT-549 breast
UO-31 renal = test system: UO-31 renal
OVCAR-8 ovarian = test system: OVCAR-8 ovarian
K-562 leukemia = test system: K-562 leukemia
LOX IMVI melanoma = test system: LOX IMVI melanoma
SW-620 colon = test system: SW-620 colon
HL-60(TB) leukemia = test system: HL-60(TB) leukemia
SN12C renal = test system: SN12C renal
A498 renal = test system: A498 renal
IGROV1 ovarian = test system: IGROV1 ovarian
CAKI-1 renal = test system: CAKI-1 renal
NCI-H226 lung = test system: NCI-H226 lung
HOP-62 NSCLC = test system: HOP-62 NSCLC
TK-10 renal = test system: TK-10 renal
DU-145 prostate = test system: DU-145 prostate
SF-539 CNS = test system: SF-539 CNS
SF-268 CNS = test system: SF-268 CNS
MCF7 breast = test system: MCF7 breast
CCRF-CEM leukemia = test system: CCRF-CEM leukemia
NCI-H23 lung = test system: NCI-H23 lung
SK-MEL-28 melanoma = test system: SK-MEL-28 melanoma
MDA-N = test system: MDA-N
MALME-3M melanoma = test system: MALME-3M melanoma
HCT-116 colon = test system: HCT-116 colon
RPMI-8226 leukemia = test system: RPMI-8226 leukemia
HCC-2998 colon = test system: HCC-2998 colon
EKVX NSCLC = test system: EKVX NSCLC
MDA-MB-435 = test system: MDA-MB-435
A549 NSCLC = test system: A549 NSCLC
HS 578T breast = test system: HS 578T breast
HT29 colon = test system: HT29 colon
NCI-H522 lung = test system: NCI-H522 lung
KM12 colon = test system: KM12 colon
PC-3 prostate = test system: PC-3 prostate
U251 CNS = test system: U251 CNS
786-0 renal = test system: 786-0 renal
SK-OV-3 ovarian = test system: SK-OV-3 ovarian
SK-MEL-5 melanoma = test system: SK-MEL-5 melanoma
T-47D breast = test system: T-47D breast
OVCAR-3 ovarian = test system: OVCAR-3 ovarian
ACHN renal = test system: ACHN renal
SNB-75 CNS = test system: SNB-75 CNS
HOP-92 NSCLC = test system: HOP-92 NSCLC
NCI-H460 lung = test system: NCI-H460 lung
HCT-15 colon = test system: HCT-15 colon
M14 melanoma = test system: M14 melanoma
SNB-19 CNS = test system: SNB-19 CNS
RXF 393 renal = test system: RXF 393 renal

C=C1CC(C)(COc2ccc3c(C)c(C)c(=O)oc3c2C)OC1=O (stereo unspecified)
TGI (OVCAR-5 ovarian): 16.2 µM | TGI (MOLT-4 leukemia): 4.13 µM | TGI (UACC-62 melanoma): 2.74 µM | TGI (SK-MEL-2 melanoma): 5.58 µM | TGI (MDA-MB-231 breast): 7.8 µM | TGI (NCI/ADR-RES ovarian): 13.8 µM | TGI (SF-295 CNS): 16.1 µM | TGI (UACC-257 melanoma): 6.98 µM | TGI (COLO 205 colon): 2.75 µM | TGI (OVCAR-4 ovarian): 19.3 µM | TGI (BT-549 breast): 3.07 µM | TGI (UO-31 renal): 22.2 µM | TGI (OVCAR-8 ovarian): 7.69 µM | TGI (K-562 leukemia): 4.4 µM | TGI (LOX IMVI melanoma): 2.91 µM | TGI (SW-620 colon): 3.92 µM | TGI (HL-60(TB) leukemia): 0.954 µM | TGI (SN12C renal): 4.28 µM | TGI (A498 renal): 4.26 µM | TGI (IGROV1 ovarian): 3.35 µM | TGI (CAKI-1 renal): 6.26 µM | TGI (NCI-H226 lung): 32.6 µM | TGI (HOP-62 NSCLC): 28.8 µM | TGI (TK-10 renal): 3.08 µM | TGI (DU-145 prostate): 7.08 µM | TGI (SF-539 CNS): 7.04 µM | TGI (SF-268 CNS): 15.7 µM | TGI (MCF7 breast): 2.84 µM | TGI (CCRF-CEM leukemia): 3.2 µM | TGI (NCI-H23 lung): 5.25 µM | TGI (SK-MEL-28 melanoma): 5.08 µM | TGI (MDA-N): 4.61 µM | TGI (MALME-3M melanoma): 5.53 µM | TGI (HCT-116 colon): 2.41 µM | TGI (RPMI-8226 leukemia): 2.59 µM | TGI (HCC-2998 colon): 4.49 µM | TGI (EKVX NSCLC): 15.1 µM | TGI (MDA-MB-435): 11.2 µM | TGI (A549 NSCLC): 21 µM | TGI (HS 578T breast): 15.1 µM | TGI (HT29 colon): 5.39 µM | TGI (NCI-H522 lung): 4.28 µM | TGI (KM12 colon): 19.6 µM | TGI (PC-3 prostate): 7.08 µM | TGI (U251 CNS): 18.9 µM | TGI (786-0 renal): 3.24 µM | TGI (SK-OV-3 ovarian): 12.2 µM | TGI (SK-MEL-5 melanoma): 3.73 µM | TGI (T-47D breast): 3.09 µM | TGI (OVCAR-3 ovarian): 14.2 µM | TGI (ACHN renal): 7.45 µM | TGI (SNB-75 CNS): 15.9 µM | TGI (HOP-92 NSCLC): 2.76 µM | TGI (NCI-H460 lung): 19.6 µM | TGI (HCT-15 colon): 4.54 µM | TGI (M14 melanoma): 10.7 µM | TGI (SNB-19 CNS): 30.4 µM

O=c1cc(-c2ccc3ccccc3c2)[nH]c2ncc(Cl)cc12
TGI (OVCAR-5 ovarian): > 100 µM | TGI (MOLT-4 leukemia): > 100 µM | TGI (UACC-62 melanoma): > 100 µM | TGI (SK-MEL-2 melanoma): 45.1 µM | TGI (MDA-MB-231 breast): 56.2 µM | TGI (NCI/ADR-RES ovarian): > 100 µM | GI50 (SF-295 CNS): 5.44 µM | TGI (SF-295 CNS): 29 µM | TGI (UACC-257 melanoma): > 100 µM | TGI (COLO 205 colon): 21.8 µM | TGI (OVCAR-4 ovarian): > 100 µM | TGI (BT-549 breast): > 100 µM | TGI (UO-31 renal): > 100 µM | TGI (OVCAR-8 ovarian): 22.9 µM | TGI (K-562 leukemia): > 100 µM | TGI (LOX IMVI melanoma): > 100 µM | TGI (SW-620 colon): > 100 µM | GI50 (HL-60(TB) leukemia): 1.78 µM | TGI (HL-60(TB) leukemia): 3.96 µM | TGI (SN12C renal): > 100 µM | TGI (A498 renal): 43.1 µM | TGI (IGROV1 ovarian): > 100 µM | GI50 (CAKI-1 renal): 7.58 µM | TGI (CAKI-1 renal): > 100 µM | TGI (NCI-H226 lung): > 100 µM | TGI (HOP-62 NSCLC): 29.6 µM | TGI (TK-10 renal): 45.6 µM | TGI (DU-145 prostate): > 100 µM | TGI (SF-539 CNS): 56.5 µM | TGI (SF-268 CNS): 34.4 µM | TGI (MCF7 breast): > 100 µM | TGI (CCRF-CEM leukemia): 56.8 µM | TGI (NCI-H23 lung): 57 µM | TGI (SK-MEL-28 melanoma): > 100 µM | GI50 (MDA-N): 1.55 µM | TGI (MDA-N): 5.45 µM | TGI (MALME-3M melanoma): 44.1 µM | GI50 (HCT-116 colon): 3.98 µM | TGI (HCT-116 colon): > 100 µM | TGI (RPMI-8226 leukemia): 24.5 µM | TGI (HCC-2998 colon): > 100 µM | TGI (EKVX NSCLC): > 100 µM | GI50 (MDA-MB-435): 0.846 µM | TGI (MDA-MB-435): 2.76 µM | TGI (A549 NSCLC): > 100 µM | TGI (HS 578T breast): 70.8 µM | TGI (HT29 colon): > 100 µM | TGI (NCI-H522 lung): 36.8 µM | TGI (KM12 colon): > 100 µM | GI50 (PC-3 prostate): 3.1 µM | TGI (PC-3 prostate): 29.1 µM | GI50 (U251 CNS): 4.74 µM | TGI (U251 CNS): 46.1 µM | TGI (786-0 renal): 16.8 µM | TGI (SK-OV-3 ovarian): 34.4 µM | GI50 (SK-MEL-5 melanoma): 2.98 µM | TGI (SK-MEL-5 melanoma): > 100 µM | TGI (T-47D breast): > 100 µM | GI50 (OVCAR-3 ovarian): 2.65 µM | TGI (OVCAR-3 ovarian): 7.81 µM | TGI (ACHN renal): > 100 µM | TGI (SNB-75 CNS): 9.96 µM | TGI (HOP-92 NSCLC): 38.1 µM | GI50 (NCI-H460 lung): 4.12 µM | TGI (NCI-H460 lung): > 100 µM | TGI (HCT-15 colon): > 100 µM | TGI (M14 melanoma): > 100 µM | TGI (SNB-19 CNS): 51.2 µM

O=C1C=CC(=O)C(CNc2ccc(C(=O)OC34CC5CC(CC(C5)C3)C4)cc2)=C1Br
TGI (OVCAR-5 ovarian): 38 µM | TGI (MOLT-4 leukemia): 25.5 µM | TGI (UACC-62 melanoma): 21.6 µM | TGI (SK-MEL-2 melanoma): 38.2 µM | TGI (MDA-MB-231 breast): 24.3 µM | TGI (NCI/ADR-RES ovarian): 18.4 µM | TGI (SF-295 CNS): 33.5 µM | TGI (UACC-257 melanoma): 29.1 µM | TGI (COLO 205 colon): 24.1 µM | TGI (OVCAR-4 ovarian): 22.6 µM | TGI (BT-549 breast): 20.5 µM | TGI (UO-31 renal): 21.2 µM | TGI (OVCAR-8 ovarian): 23.9 µM | TGI (K-562 leukemia): 32.7 µM | TGI (LOX IMVI melanoma): 23.4 µM | TGI (SW-620 colon): 68.1 µM | TGI (RXF 393 renal): 17.5 µM | TGI (SN12C renal): 34.1 µM | TGI (A498 renal): 33.1 µM | TGI (IGROV1 ovarian): 15.6 µM | TGI (CAKI-1 renal): 12.5 µM | TGI (NCI-H226 lung): 32.4 µM | TGI (HOP-62 NSCLC): 62.2 µM | TGI (TK-10 renal): 28.6 µM | TGI (DU-145 prostate): 94.8 µM | TGI (SF-539 CNS): 5.6 µM | TGI (SF-268 CNS): 27.4 µM | TGI (MCF7 breast): 48.1 µM | TGI (CCRF-CEM leukemia): 7.41 µM | TGI (NCI-H23 lung): 23.9 µM | TGI (MDA-N): 33 µM | TGI (MALME-3M melanoma): 15.5 µM | TGI (HCT-116 colon): 27.1 µM | TGI (RPMI-8226 leukemia): 33.4 µM | TGI (HCC-2998 colon): 28.3 µM | TGI (EKVX NSCLC): 20.5 µM | TGI (MDA-MB-435): 65.5 µM | TGI (A549 NSCLC): 49.3 µM | TGI (HS 578T breast): 27.2 µM | TGI (HT29 colon): 16.8 µM | TGI (NCI-H522 lung): 1.44 µM | TGI (KM12 colon): 19.7 µM | TGI (PC-3 prostate): 19 µM | TGI (U251 CNS): 38.2 µM | TGI (786-0 renal): 28.3 µM | TGI (SK-OV-3 ovarian): 34.2 µM | TGI (SK-MEL-5 melanoma): 22 µM | TGI (T-47D breast): 18.5 µM | TGI (OVCAR-3 ovarian): 39.4 µM | TGI (ACHN renal): 28.4 µM | TGI (SNB-75 CNS): 19.7 µM | TGI (HOP-92 NSCLC): 12.3 µM | TGI (NCI-H460 lung): 29.4 µM | TGI (HCT-15 colon): 21.4 µM | TGI (M14 melanoma): 60 µM | TGI (SNB-19 CNS): 35.4 µM
